Measurements as given in US5155110A, “Fenamic acid hydroxamate derivatives having cyclooxygenase and 5-lipoxygenase inhibition” (Warner-Lambert Company, priority 1988, dated 1992).
pIC50: −log10 of the molar value. Like-named read-outs stand apart in the source and are kept apart here.

Tests used:
[1] = test system: carrageenan-induced rat foot paw edema; assay: Carrageenan-Induced Rat Foot Paw Edema (CFE-2); assay type: in vivo; conditions: 5 h, read-out: CFE-2 ID25
Experimental: Carrageenan-Induced Rat Foot Paw Edema2 (CFE2)
Carrageenan solution (1% w/v) is prepared by dissolving 100 mg carrageenan (Marine Colloidal Div., Springfield, N.J.) in 10 ml of sterile saline (0.9%) solution (Travenol). The solution is vortexed for 30 to 45 minutes. Animals are dosed with compound one hour before carrageenan challenge. Foot paw edema is induced by injecting 0.05 ml of the 1% carrageenan subcutaneously into the plantar portion of the right hind paw of each rat under light anesthesia. Initial foot paw volume is measured immediately following carrageenan challenge using mercury plethysmography (Buxco Electronics). Edema is measured five hours after carrageenan. The difference between the five-hour and the initial paw volume is expressed as delta edema. The delta edema for each test group of animals is used to calculate the percent inhibition of edema achieved by the compound at the test dose compared with the vehicle control group. The ID25 (the dose at which swelling is inhibited by 25%) was calculated by probit analysis for the dose at which a result of 25 percent inhibition occurs.

[2] = test system: Mycobacterium-induced rat footpad edema; assay: Mycobacterium-Induced Rat Footpad Edema Assay (MFE); assay type: in vivo; conditions: PO, one hour before Mycobacterium and Days 1 and 2, swelling at 72 hours, read-out: MFE ID40
Experimental: Mycobacterium--Induced Rat Footpad Edema Assay (MFE): Protocol
Myobacterium butyricum (5 mg/ml) is suspended in paraffin oil by sonication for ten minutes in an ice bath. Footpad edema is induced on Day 0 by injecting 0.1 ml of the Mycobacterium mixture into the left hindpaw of lightly anesthetized rats. Swelling in the injected hindpaw is determined by mercury plethysmography 72 hours after injection. Groups of rats are treated with test compounds (suspended in 0.5% hydroxypropyl methylcellulose with 0.2% Tween-80) or vehicle one hour before Myobacterium injection and on Days 1 and 2. Inhibition of swelling is determined by comparing the change in hindpaw volume in compound- and vehicle-treated rats. […] (the dose at which swelling is inhibited by 40%) was calculated by probit analysis.

5-lipoxygenase = target: T1, 5-lipoxygenase (Rattus norvegicus, UniProt P12527); assay: ARBL whole cell 5-lipoxygenase assay (LTB4 formation in RBL-1 cells); assay type: cell-based; conditions: RBL-1 whole cells; for pIC50: A23187 5 μM, read-out: ARBL IC50 for LTB4 inhibition
T1 construct: host or cells: RBL-1 (rat basophilic leukemia)
T1 sequence (P12527 1-673): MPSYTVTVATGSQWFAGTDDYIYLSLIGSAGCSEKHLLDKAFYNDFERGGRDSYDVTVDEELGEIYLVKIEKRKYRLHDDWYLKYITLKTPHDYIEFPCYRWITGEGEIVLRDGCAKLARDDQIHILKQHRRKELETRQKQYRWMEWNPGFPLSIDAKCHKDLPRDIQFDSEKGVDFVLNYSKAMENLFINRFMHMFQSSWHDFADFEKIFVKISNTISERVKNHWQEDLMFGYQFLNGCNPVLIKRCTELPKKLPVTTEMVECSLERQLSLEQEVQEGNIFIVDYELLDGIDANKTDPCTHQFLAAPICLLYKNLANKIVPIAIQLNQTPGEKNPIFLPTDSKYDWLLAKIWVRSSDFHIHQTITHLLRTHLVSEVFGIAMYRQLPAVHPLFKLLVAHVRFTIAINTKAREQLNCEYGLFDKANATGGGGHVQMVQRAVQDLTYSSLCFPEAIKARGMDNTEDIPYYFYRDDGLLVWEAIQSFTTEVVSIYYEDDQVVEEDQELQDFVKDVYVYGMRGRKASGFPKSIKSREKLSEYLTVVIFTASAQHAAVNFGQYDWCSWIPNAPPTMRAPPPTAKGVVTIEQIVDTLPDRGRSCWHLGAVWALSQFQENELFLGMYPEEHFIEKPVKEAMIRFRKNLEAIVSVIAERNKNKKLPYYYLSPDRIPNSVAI
Experimental: (§1) ARBL/ARBC Whole Cell 5-Lipoxygenase and Cyclooxygenase Assays
(§2) The rat basophilic leukemia cell line (RBL-1) was obtained from the American Type Culture Collection (Rockville, Md.).
(§3) Radioimmuno assay (RIA) kits of LTB4 and PGF2.sbsb.α were obtained from Amersham (Arlington Heiqhts, Ill.) and Seragen (Boston, Mass.) respectively.
(§4) All tissue culture media were obtained from GIBCO (Grand Island, N.Y.).
(§5) RBL-1 cells are grown in suspension culture in Eagle's minimum essential medium supplemented with 12% fetal bovine serum at 37° C. in an incubator supplied with air-5% carbon dioxide. Cells are harvested by centrifugation. They are washed with cold phosphate buffered saline pH 7.4 (PBS; NaCl, […]; Na2 HPO4, 1.15 g; KH2 PO4, 0.2 g; and KCl, 0.2 g/l). Cells are finally suspended in PBS containing 1.0 mM calcium at a density of 2×10^6 cells/ml. Cells are incubated with and without test agent (in DMSO) (1% DMSO is without effect on arachidonic acid metabolism) for ten minutes at room temperature. Calcium ionophore A23187 (5 μM) is added and cells are incubated for seven minutes at 37° C. The reaction is stopped by chilling the tubes on ice for ten minutes. Cells are separated by centrifugation and the supernatant is stored at -20°. Aliquots (100 μl) are analyzed for LTB4 and PGF2.sbsb.α using radioimmuno assay kits as provided by the supplier.

gastric ulcers in rats = assay: Gastric Ulcerogenicity (UD); assay type: in vivo, rat; conditions: @ 200 mg/kg PO, fasted male Wistar rats, six hours
Experimental: (§6) Gastric Ulcerogenicity (UD)
(§7) Male outbred Wistar rats (100-250 gms) were fasted for 24 hours. After fasting, test compounds were administered orally (in 2 ml/kg of 0.5% hydroxypropyl methylcellulose) and the rats were denied access to food and water for six more hours. The rats were then sacrificed with CO2 so that the stomachs could be removed, opened along the greater curvature, and evaluated for the presence of gastric ulcers. Results are expressed as the percent of rats with gastric ulcers at a given dose.

cyclooxygenase = target: T2, cyclooxygenase (Rattus norvegicus, UniProt Q63921); assay: ARBC whole cell cyclooxygenase assay (PGF2α formation in RBL-1 cells); assay type: cell-based; conditions: RBL-1 whole cells; for pIC50: A23187 5 μM, read-out: ARBC IC50 for PGF2α inhibition
T2 construct: host or cells: RBL-1 (rat basophilic leukemia)
T2 sequence (Q63921 27-602): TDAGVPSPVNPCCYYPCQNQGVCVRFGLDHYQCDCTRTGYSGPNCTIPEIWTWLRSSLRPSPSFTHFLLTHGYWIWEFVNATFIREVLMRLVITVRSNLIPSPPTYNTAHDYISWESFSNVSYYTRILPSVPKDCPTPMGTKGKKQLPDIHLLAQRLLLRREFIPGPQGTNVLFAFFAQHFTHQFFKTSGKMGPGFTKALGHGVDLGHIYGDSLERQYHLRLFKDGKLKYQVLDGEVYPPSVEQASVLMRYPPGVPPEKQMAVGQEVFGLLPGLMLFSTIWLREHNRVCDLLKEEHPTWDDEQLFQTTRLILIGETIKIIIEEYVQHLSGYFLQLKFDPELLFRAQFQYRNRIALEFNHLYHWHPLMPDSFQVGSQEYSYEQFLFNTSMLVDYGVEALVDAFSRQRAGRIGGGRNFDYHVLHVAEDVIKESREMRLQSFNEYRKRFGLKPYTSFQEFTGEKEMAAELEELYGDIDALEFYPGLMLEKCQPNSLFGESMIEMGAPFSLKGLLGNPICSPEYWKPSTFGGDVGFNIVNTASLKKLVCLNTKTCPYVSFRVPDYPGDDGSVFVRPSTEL
Experimental: as §1, §2, §3, §4
as §5, with “Cells are finally suspended in PBS containing 1.0 mM calcium at a density of 2×10^6 cells/ml. Cells are incubated with and without test agent (in DMSO) (1% DMSO is without effect on arachidonic acid metabolism) for ten minutes at room temperature.” left out

[3] = Gastric Ulcerogenicity (UD); assay type: in vivo, rat; conditions: rat, in vivo; fasted male Wistar rats, PO, six hours; read-out: UD50 (dose which produces a 50% occurrence of ulcers in rats)
Experimental: as §6, §7

[4] = rat, PO, dosed one hour before carrageenan, edema at five hours

SMILES: Cc1ccc(Cl)c(Nc2ccccc2C(=O)N(C)O)c1Cl [Example 3, 2-[(2,6-dichloro-3-methylphenyl)amino]-N-hydroxy-N-methylbenzamide]
- ED25 [1, 4]: 1.3 mg/kg
- ED40 [2]: 24 mg/kg
- pIC50 (5-lipoxygenase): 5.82
- UD: percent of rats with gastric ulcers (gastric ulcers in rats): N (N is 0% of rats have ulcers occurring at 200 mg.)

SMILES: Cc1ccc(Cl)c(N2CN(O)C(=O)c3ccccc32)c1Cl [Example 35, 1-(2,6-dichloro-3-methylphenyl)-2,3-dihydro-3-hydroxy-4(1H)-quinazolinone]
- pIC50 (cyclooxygenase): 5.66
- pIC50 (5-lipoxygenase): 5.49

SMILES: Cc1ccc(Cl)c(Nc2ccccc2C(=O)N(O)Cc2ccccc2)c1Cl [Example 1, 2-[(2,6-Dichloro-3-methylphenyl)amino]-N-hydroxy-N-phenylmethylbenzamide]
- ED40 [2]: 27 mg/kg
- UD: percent of rats with gastric ulcers (gastric ulcers in rats): N (N is 0% of rats have ulcers occurring at 200 mg.)

SMILES: CONC(=O)c1ccccc1Nc1c(Cl)ccc(C)c1Cl [Example 4, Ortho-2,6-dichloro-3-methylanilinobenzhydroxamic acid O-methyl ether]
- pIC50 (5-lipoxygenase): 4.80

SMILES: Cc1cccc(Nc2ccccc2C(=O)NO)c1C [Example 9, 2-[(2,3-dimethylphenyl)amino]-N-hydroxybenzamide]
- inhibition at 0.5 µM (cyclooxygenase; @ 0.5 μM): 60%
- pIC50 (5-lipoxygenase): 5.74

SMILES: Cc1ccc(Cl)c(Nc2ccccc2C(=O)O)c1Cl [Meclomen, reference compound]
- ED25 ([1]; Rattus norvegicus, po): 8.2 mg/kg
- ED40 [2]: 0.39 mg/kg
- pIC50 (5-lipoxygenase): 4.62
- TD50 at 6 h [3]: 36 mg/kg

SMILES: O=C(NO)c1ccccc1Nc1c(Cl)cccc1Cl [Example 10, 2-[(2,6-dichlorophenyl)amino]-N-hydroxybenzamide]
- inhibition at 16 µM (cyclooxygenase; @ 16 μM): 80%
- inhibition at 16 µM (5-lipoxygenase; @ 16 μM): 88%

SMILES: Cc1ccc(Cl)c(N2C(=O)C(=NO)c3ccccc32)c1Cl [Example 49, 1-(2,6-Dichloro-3-methylphenyl)-lH-indole-2,3-dione-3-oxime]
- pIC50 (cyclooxygenase): 4.55
- pIC50 (5-lipoxygenase): 5.19

SMILES: Cc1ccc(Cl)c(Nc2ccccc2C(=O)NO)c1Cl [Example 2, 2-[(2,6-dichloro-3-methylphenyl)amino]-N-hydroxybenzamide]
- ED25 [1, 4]: 0.2 mg/kg
- ED40 [2]: 2.5 mg/kg
- pIC50 (5-lipoxygenase): 5.41
- UD: percent of rats with gastric ulcers (gastric ulcers in rats): N (N is 0% of rats have ulcers occurring at 200 mg.)
